Laboratory results reported in article PMC12040169 (PLOS Biology, 2025).

Test: in vitro
Settings: human, hela cells, % viability

Compared with Cc1cccc(C2(CNC(=O)C3COCCO3)CCCCC2)c1 (centres unmarked) [CBK305087], CC(=O)Nc1cccc(C(=O)N2CCN(CC3CCCO3)CC2)c1 (centres unmarked) [CBK305158] is lower in viability at 28.5 h, 10 µM: 109% for the first, 96% for the second.

Going from CC(NC(=O)N1CCSCC1)c1ccc2c(c1)CC(=O)N2 (centres unmarked) [CBK305093] to CC(Sc1nc2ccc(Cl)cc2o1)C(=O)N1CCOCC1 (centres unmarked) [CBK305164], the viability at 28.5 h, 10 µM falls from 96.7% to 92.1%.

First: Cn1cc(CCC(=O)N2CCN(Cc3ccccn3)CC2)cn1 [CBK305094]
Second: Cc1cccc(CCNC(=O)N2CCC(Cc3cnn(C)c3)C2)c1 (centres unmarked) [CBK305137]
The viability at 28.5 h, 10 µM of the first is higher: 113% for the first, 110% for the second.

First: COc1ccc(CCN2CCCCC2Cn2cncn2)cc1 (centres unmarked) [CBK305095]
Second: O=C(CN1CCCC1Cn1cncn1)NCCc1ccsc1 (centres unmarked) [CBK305113]
The viability at 28.5 h, 10 µM of the first is higher: 108% for the first, 85.2% for the second.

Going from COc1ccccc1C(C)N(C)CCC(=O)Nc1cc(C)on1 (centres unmarked) [CBK305098] to Cc1cccc(-c2nc(CN(C)CC(=O)NC(C)C)no2)c1 [CBK305109], the viability at 28.5 h, 10 µM rises from 94.1% to 115%.

Compared with Cn1nccc1CNCc1cc(Br)ccc1Cl [CBK305100], Cn1cc(CNS(=O)(=O)c2ccc(F)c(Br)c2)cn1 [CBK305174] is higher in viability at 28.5 h, 10 µM: 88.3% for the first, 92.5% for the second.

Compared with CC(C)(C)OC(=O)N1CCCC(C(=O)NCc2ccco2)C1 (centres unmarked) [CBK305102], CC(C)(C)c1n[nH]c(C2CN(C(=O)CCc3ccco3)CCO2)n1 (centres unmarked) [CBK305204] is lower in viability at 28.5 h, 10 µM: 99.1% for the first, 81.5% for the second.

Compared with CCc1nc(CNc2ccc(NC(C)=O)cc2Cl)cs1 [CBK305103], CCc1nc(C(C)NCC(=O)Nc2cc(C)nn2C)cs1 (centres unmarked) [CBK305118] is lower in viability at 28.5 h, 10 µM: 102% for the first, 97.8% for the second.

Compared with CCc1ccc(CNC2CCN(Cc3cscn3)CC2)o1 [CBK305104], Cn1cc(CNCC2CCN(CCO)CC2)c(-c2cccnc2)n1 [CBK305153] is lower in viability at 28.5 h, 10 µM: 92.7% for the first, 91.2% for the second.

Compared with Cc1n[nH]c(C)c1C1COCCN1C(=O)c1cccc(F)c1 (centres unmarked) [CBK305105], Cc1noc(C2COCCN2C(=O)c2cc(Cl)cn2C)n1 (centres unmarked) [CBK305120] is higher in viability at 28.5 h, 10 µM: 86.9% for the first, 98.8% for the second.

Going from OC1CC(c2cc(F)ccc2F)N(CCc2ccncc2)C1 (centres unmarked) [CBK305106] to CC(=O)c1cccc(NC(=O)CN2CCCC2c2cccs2)c1 (centres unmarked) [CBK305143], the viability at 28.5 h, 10 µM rises from 87.2% to 109%.

First: COCCc1nsc(N2CCCC(c3nccs3)C2)n1 (centres unmarked) [CBK305110]
Second: COCc1nc2n(n1)CC(NC1CCCc3sccc31)CC2 (centres unmarked) [CBK305116]
The viability at 28.5 h, 10 µM of the first is higher: 92% for the first, 90.1% for the second.

First: CCC(CC)n1nc(C(=O)NC2(C#N)CCSC2)cc1C (centres unmarked) [CBK305111]
Second: CC(NCC(=O)NC1(C#N)CCCCC1)C(C)n1cccn1 (centres unmarked) [CBK305129]
The viability at 28.5 h, 10 µM of the first is higher: 103% for the first, 91.4% for the second.

Compared with CCOC(=O)c1cnn(C2CCCN(Cc3cccn3C)C2)c1 (centres unmarked) [CBK305114], CCOC(=O)c1cnn(C2CCCN(Cc3cccs3)C2)c1 (centres unmarked) [CBK305121] is higher in viability at 28.5 h, 10 µM: 84.3% for the first, 99.5% for the second.

Compared with NC(=O)c1cccc(CNC2CCCN(c3cccnn3)C2)c1 (centres unmarked) [CBK305115], CC(=O)c1cccc(NC(=O)N(CCO)C2CCCc3ccccc32)c1 (centres unmarked) [CBK305195] is lower in viability at 28.5 h, 10 µM: 103% for the first, 83% for the second.

Going from CC(C)c1nc(NCc2nnc3n2CCC3)nc(N(C)C)n1 [CBK305117] to Cc1nc(CNCc2c(C(C)C)nn(C)c2N(C)C)cs1 [CBK305119], the viability at 28.5 h, 10 µM rises from 99.5% to 109%.

First: Cc1nnc(CN(C)C2CCN(CCc3cccs3)C2)n1C (centres unmarked) [CBK305126]
Second: COCCn1c(SC2CCN(C)C2=O)nc2ccccc21 (centres unmarked) [CBK305131]
The viability at 28.5 h, 10 µM of the first is lower: 97.8% for the first, 97.9% for the second.

Going from CC(C)c1nn(C)c(N(C)C)c1CNCCc1cnn(C)c1 [CBK305135] to COc1ccc(Br)c(C(=O)N(C)Cc2cnn(C)c2)c1 [CBK305142], the viability at 28.5 h, 10 µM falls from 108% to 97.7%.

Compared with CCN(C(C)COC)S(=O)(=O)c1cccc(Cl)c1Cl (centres unmarked) [CBK305146], CCC(CCO)CNc1ncnc2ccc(S(C)(=O)=O)cc12 (centres unmarked) [CBK305157] is lower in viability at 28.5 h, 10 µM: 98.4% for the first, 84% for the second.

First: CCCCCCN(CCN1CCOCC1)C(=O)Nc1cc(C)on1 [CBK305147]
Second: CCC(NC(=O)Nc1ccc(N2CCOCC2)nc1)c1cnn(CC)c1 (centres unmarked) [CBK305172]
The viability at 28.5 h, 10 µM of the first is lower: 84.7% for the first, 90.6% for the second.

Going from O=C(NCCN1CCCCC1)C1CC(=O)N(c2ccccc2F)C1 (centres unmarked) [CBK305148] to COCCn1cc(C(=O)N2CCOC3CCCC32)c2ccccc21 (centres unmarked) [CBK305156], the viability at 28.5 h, 10 µM falls from 86.8% to 86.1%.

Going from COc1ccnc(N2CCCN(Cc3ncc(Cl)n3C)CC2)n1 [CBK305152] to c1csc(N2CCN(c3nccn4cnnc34)CC2)n1 [CBK305185], the viability at 28.5 h, 10 µM falls from 111% to 103%.

Compared with O=C(CC1OCCc2ccsc21)N1CCCC(n2cccn2)C1 (centres unmarked) [CBK305154], CC(C)(C)c1n[nH]c(C2CN(C(=O)CCCn3cccn3)CCO2)n1 (centres unmarked) [CBK305198] is lower in viability at 28.5 h, 10 µM: 96.7% for the first, 88.1% for the second.

Compared with CC(C(=O)NC1(C#N)CCCCC1)N1CCOC(CN(C)C)C1 (centres unmarked) [CBK305155], CC(CC(=O)N1CCOC(c2nc(C(C)(C)C)n[nH]2)C1)n1cccc1 (centres unmarked) [CBK305214] is lower in viability at 28.5 h, 10 µM: 88.6% for the first, 82.8% for the second.

First: N#Cc1ccc(N2CCCC(N3CCNC3=O)C2)c(C(F)(F)F)c1 (centres unmarked) [CBK305162]
Second: O=C(NC1CCN(CC(F)(F)F)C1=O)c1cc(Cl)ccn1 (centres unmarked) [CBK305223]
The viability at 28.5 h, 10 µM of the first is lower: 84.9% for the first, 98.6% for the second.

Compared with COCC(O)CN(C)c1nc(-c2ccncc2)nc2ccccc12 (centres unmarked) [CBK305170], O=C(NCC(CO)Cc1ccccn1)c1ccc2cc[nH]c2c1 (centres unmarked) [CBK305222] is higher in viability at 28.5 h, 10 µM: 78.7% for the first, 81.6% for the second.

First: Cc1nnc(C(C)N2CCN(Cc3noc(C(C)(C)C)n3)CC2)o1 (centres unmarked) [CBK305171]
Second: Cn1ccc(C(=O)N2CCOC(c3nc(C(C)(C)C)n[nH]3)C2)cc1=O (centres unmarked) [CBK305201]
The viability at 28.5 h, 10 µM of the first is lower: 85.7% for the first, 106% for the second.

Going from COCCOCC(C)NC(=O)COc1nn(C)c2nc(C)cc(C)c12 (centres unmarked) [CBK305177] to CCN1CCCC(NC(=O)COc2nn(C)c3nc(C)cc(C)c23)C1 (centres unmarked) [CBK305224], the viability at 28.5 h, 10 µM rises from 105% to 113%.

Compared with CS(=O)(=O)CCOCCNC(=O)c1cc(Br)cnc1Cl [CBK305178], CCNS(=O)(=O)c1ccc2c(c1)N(Cc1nc(C)c(C)o1)CC2 [CBK305189] is lower in viability at 28.5 h, 10 µM: 86.4% for the first, 51.5% for the second.

First: CCc1nc(C2CCCN2c2ncc(C#N)cc2Cl)no1 (centres unmarked) [CBK305183]
Second: CCc1nnc(CN2CCCC(c3cc(C(N)=O)[nH]n3)C2)o1 (centres unmarked) [CBK305213]
The viability at 28.5 h, 10 µM of the first is higher: 91.1% for the first, 74.5% for the second.

First: Cc1ccnc(NCC2CCN(c3cc(=O)n4oc(C)cc4n3)C2)c1 (centres unmarked) [CBK305191]
Second: CN(C)c1cccc(C2CCCN2c2nc3c(cnn3C)c(=O)[nH]2)c1 (centres unmarked) [CBK305220]
The viability at 28.5 h, 10 µM of the first is higher: 84.6% for the first, 78.6% for the second.

Going from Cc1cc(C)n2nc(C(=O)N3CCC(C)CC3c3ccco3)nc2n1 (centres unmarked) [CBK305196] to CN(c1ccccc1)C1CCN(c2nc3c(cnn3C)c(=O)[nH]2)CC1 [CBK305215], the viability at 28.5 h, 10 µM rises from 84.8% to 96.3%.

Compared with CCc1nc(C)c(C(C)N(C)CC(=O)NCc2ccco2)s1 (centres unmarked) [CBK305203], COc1ncccc1CNC(=O)Nc1cccn(CC(F)(F)F)c1=O [CBK305216] is higher in viability at 28.5 h, 10 µM: 86.6% for the first, 113% for the second.

First: CCn1ncc2c1CCCC2NC1CCN(CC(F)(F)F)C1=O (centres unmarked) [CBK305206]
Second: COCCn1c(SCc2c(C)nc3ccccn23)nc(C)c1C [CBK305212]
The viability at 28.5 h, 10 µM of the first is higher: 89.5% for the first, 80.1% for the second.
